Experimental data as given in patent US11597721B2, “Heterocyclic compounds comprising pyridine useful as modulators of IL-12, IL-23 and/or IFNα responses” (BRISTOL-MYERS SQUIBB COMPANY, priority 2018, dated 2023).

The molecules below were run on IFNα-Induced STAT Phosphorylation (assay: IFNα-Induced STAT Phosphorylation in Human Whole Blood). Conditions: 1 h compound incubation, 1000 U/mL recombinant human IFNα A/D for 15 min, pSTAT5 in CD3 positive population, read-out: LE Human WB IFNα-Induced Stat Phosph. (IC50).
Type: cell-based
Text: IFNα-Induced STAT Phosphorylation in Human Whole Blood
The amount of pSTAT5 expression was quantitated by median fluorescence intensity after gating on the CD3 positive population.

IC50 [nM]	Compound
270	[2H]C([2H])([2H])NC(=O)c1nnc(Nc2ccccn2)cc1Nc1nccc(-c2ncn(C)n2)c1OC [Example 28]

Same assay, conditions: Homo sapiens, 1 h compound incubation, 1000 U/mL recombinant human IFNα A/D for 15 min, pSTAT5 in CD3 positive population, read-out: LE Human WB IFNα-Induced Stat Phosph. (IC50)

IC50 [nM]	Compound
500	[2H]C([2H])([2H])NC(=O)c1nnc(NC(=O)OC)cc1Nc1nccc(-c2noc(CN3CCOCC3)n2)c1OC [Example 53, methyl N-{5-[(3-methoxy-4-{5-[(morpholin-4-yl)methyl]-1,2,4-oxadiazol-3-yl}pyridin-2-yl)amino]-6-[(^2H3)methylcarbamoyl]pyridazin-3-yl}carbamate]
60	[2H]C([2H])([2H])NC(=O)c1nnc(NC(=O)C2CC2)cc1Nc1nccc(-c2noc([C@H](C)O)n2)c1OC [Example 57, 6-cyclopropaneamido-4-[(4-{5-[(1S)-1-hydroxyethyl]-1,2,4-oxadiazol-3-yl}-3-methoxypyridin-2-yl)amino]-N—(^2H3)methylpyridazine-3-carboxamide]
110	[2H]C([2H])([2H])NC(=O)c1nnc(NC(=O)OC)cc1Nc1nccc(-c2noc(CN(C)S(C)(=O)=O)n2)c1OC [Example 52, methyl N-{5-[(3-methoxy-4-{5-[(N-methylmethanesulfonamido)methyl]-1,2,4-oxadiazol-3-yl}pyridin-2-yl)amino]-6-[(^2H3)methylcarbamoyl]pyridazin-3-yl}carbamate]
30	[2H]C([2H])([2H])NC(=O)c1nnc(Nc2ccc(-n3cccc(C(F)(F)F)c3=O)cn2)cc1Nc1nccc(-c2ncn(C)n2)c1OC [Example 26, 4-{[3-methoxy-4-(1-methyl-1H-1,2,4-triazol-3-yl)pyridin-2-yl]amino}-N—(^2H3)methyl-6-{[2-oxo-3-(trifluoromethyl)-2H-[1,3′-bipyridine]-6-yl]amino}pyridazine-3-carboxamide]
40	[2H]C([2H])([2H])NC(=O)c1nnc(NC(=O)C2CC2)cc1Nc1nccc(-c2noc(COC)n2)c1OC [Example 50, 6-cyclopropaneamido-4-({3-methoxy-4-[5-(methoxymethyl)-1,2,4-oxadiazol-3-yl]pyridin-2-yl}amino)-N—(^2H3)methylpyridazine-3-carboxamide]
130	[2H]C([2H])([2H])NC(=O)c1nnc(Nc2ccc(N3CCN(C(C)(C)C)C3=O)cn2)cc1Nc1nccc(-c2ncn(C)n2)c1OC [Example 37, 6-{[5-(3-tert-butyl-2-oxoimidazolidin-1-yl)pyridin-2-yl]amino}-4-{[3-methoxy-4-(1-methyl-1H-1,2,4-triazol-3-yl)pyridin-2-yl]amino}-N—(^2H3)methylpyridazine-3-carboxamide]
420	[2H]C([2H])([2H])NC(=O)c1nnc(NC(=O)CC(C)C)cc1Nc1nccc(-c2noc(CN3CCOC3=O)n2)c1OC [Example 71, 4-[(3-methoxy-4-{5-[(2-oxo-1,3-oxazolidin-3-yl)methyl]-1,2,4-oxadiazol-3-yl}pyridin-2-yl)amino]-N—(^2H3)methyl-6-(3-methylbutanamido)pyridazine-3-carboxamide]
280	[2H]C([2H])([2H])NC(=O)c1cnc(Nc2cc(C)ccn2)cc1Nc1nccc(-c2nnn(C)n2)c1OC [Example 103, 4-((3-methoxy-4-(2-methyl-2H-tetrazol-5-yl)pyridin-2-yl)amino)-N-(methyl-d3)-6-((4-methylpyridin-2-yl)amino)nicotinamide]
580	[2H]C([2H])([2H])NC(=O)c1nnc(Nc2cc(C)ccn2)cc1Nc1nccc(-c2noc(CN3CCOCC3)n2)c1OC [Example 42, 4-((3-methoxy-4-(5-(morpholinomethyl)-1,2,4-oxadiazol-3-yl)pyridin-2-yl)amino)-N-trideuteromethyl-6-((4-methylpyridin-2-yl)amino)pyridazine-3-carboxamide]

Second part, the molecule before the results:

Compound	IC50 [nM]
[2H]C([2H])([2H])NC(=O)c1nnc(Nc2ccncc2)cc1Nc1nccc(-c2ncn(C)n2)c1OC [Example 35, 4-{[3-methoxy-4-(1-methyl-1H-1,2,4-triazol-3-yl)pyridin-2-yl]amino}-N—(^2H3)methyl-6-[(pyridin-4-yl)amino]pyridazine-3-carboxamide]	200
[2H]C([2H])([2H])NC(=O)c1nnc(Nc2ccc(N3CCOCC3)cn2)cc1Nc1nccc(-c2ncn(C)n2)c1OC [Example 38, 4-{[3-methoxy-4-(1-methyl-1H-1,2,4-triazol-3-yl)pyridin-2-yl]amino}-N—(^2H3)methyl-6-{[5-(morpholin-4-yl)pyridin-2-yl]amino}pyridazine-3-carboxamide]	10
[2H]C([2H])([2H])NC(=O)c1nnc(Nc2cc(F)ccn2)cc1Nc1nccc(-c2ncn(C)n2)c1OC [Example 19, 6-[(4-fluoropyridin-2-yl)amino]-4-{[3-methoxy-4-(1-methyl-1H-1,2,4-triazol-3-yl)pyridin-2-yl]amino}-N—(^2H3)methylpyridazine-3-carboxamide]	30
[2H]C([2H])([2H])NC(=O)c1cnc(NC(=O)C2CC2)cc1Nc1nccc(-c2noc(COC(C)C)n2)c1OC [Example 47, 6-cyclopropaneamido-4-[(3-methoxy-4-{5-[(propan-2-yloxy)methyl]-1,2,4-oxadiazol-3-yl}pyridin-2-yl)amino]-N—(^2H3)methylpyridine-3-carboxamide]	20
[2H]C([2H])([2H])NC(=O)c1nnc(NC(=O)C2CC2)cc1Nc1nccc(-c2noc(CN(C)C)n2)c1OC [Example 58, 6-cyclopropaneamido-4-[(4-{5-[(dimethylamino)methyl]-1,2,4-oxadiazol-3-yl}-3-methoxypyridin-2-yl)amino]-N—(^2H3)methylpyridazine-3-carboxamide]	60
[2H]C([2H])([2H])NC(=O)c1cnc(NC(=O)C2CC2)cc1Nc1nccc(-c2noc(COCC)n2)c1OC [Example 46, 6-cyclopropaneamido-4-({4-[5-(ethoxymethyl)-1,2,4-oxadiazol-3-yl]-3-methoxypyridin-2-yl}amino)-N—(^2H3)methylpyridine-3-carboxamide]	30
[2H]C([2H])([2H])NC(=O)c1nnc(Nc2cc(C)ccn2)cc1Nc1nccc(-c2noc(COC)n2)c1OC [Example 62, 4-({3-methoxy-4-[5-(methoxymethyl)-1,2,4-oxadiazol-3-yl]pyridin-2-yl}amino)-N—(^2H3)methyl-6-[(4-methylpyridin-2-yl)amino]pyridazine-3-carboxamide]	1130
[2H]C([2H])([2H])NC(=O)c1nnc(Nc2ccc(OCC)nn2)cc1Nc1nccc(-c2ncn(C)n2)c1OC [Example 36, 6-[(6-ethoxypyridazin-3-yl)amino]-4-{[3-methoxy-4-(1-methyl-1H-1,2,4-triazol-3-yl)pyridin-2-yl]amino}-N—(^2H3)methylpyridazine-3-carboxamide]	30
[2H]C([2H])([2H])NC(=O)c1cnc(NC(=O)C2CC2)cc1Nc1nccc(-c2ccc(NC(=O)C3CC3)cn2)c1OC [Example 85, 6-(Cyclopropanecarboxamido)-4-((5-(cyclopropanecarboxamido)-3′-methoxy-[2,4′-bipyridin]-2′-yl)amino)-N-(methyl-d3)nicotinamide]	150
[2H]C([2H])([2H])NC(=O)c1nnc(NC(=O)CC2CC2)cc1Nc1nccc(-c2noc(CN(C)S(C)(=O)=O)n2)c1OC [Example 67, 6-(2-cyclopropylacetamido)-4-[(3-methoxy-4-{5-[(N-methylmethanesulfonamido)methyl]-1,2,4-oxadiazol-3-yl}pyridin-2-yl)amino]-N—(^2H3)methylpyridazine-3-carboxamide]	70
[2H]C([2H])([2H])NC(=O)c1cnc(Nc2cc(C#N)ccn2)cc1Nc1nccc(-c2nnn(C)n2)c1OC [Example 106, 6-[(4-cyanopyridin-2-yl)amino]-4-{[3-methoxy-4-(2-methyl-2H-1,2,3,4-tetrazol-5-yl)pyridin-2-yl]amino}-N—(^2H3)methylpyridine-3-carboxamide]	70
[2H]C([2H])([2H])NC(=O)c1nnc(Nc2ccn(C)n2)cc1Nc1nccc(-c2cnc(C(=O)N(C)C)cn2)c1OC [Example 90, 4-((4-(5-(Dimethylcarbamoyl)pyrazin-2-yl)-3-methoxypyridin-2-yl)amino)-N-(methyl-d3)-6-((1-methyl-1H-pyrazol-3-yl)amino)pyridazine-3-carboxamide]	60
[2H]C([2H])([2H])NC(=O)c1nnc(Nc2ccc(-n3ccccc3=O)cn2)cc1Nc1nccc(-c2ncn(C)n2)c1OC [Example 24, 4-{[3-methoxy-4-(1-methyl-1H-1,2,4-triazol-3-yl)pyridin-2-yl]amino}-N—(^2H3)methyl-6-({2-oxo-2H-[1,3′-bipyridine]-6′-yl}amino)pyridazine-3-carboxamide]	30
[2H]C([2H])([2H])NC(=O)c1cnc(NC(=O)C2CC2)cc1Nc1nccc(-c2ccc(Cl)cn2)c1OC [Example 86, 4-((5-Chloro-3′-methoxy-[2,4′-bipyridin]-2′-yl)amino)-6-(cyclopropanecarboxamido)-N-(methyl-d3)nicotinamide]	480
[2H]C([2H])([2H])NC(=O)c1nnc(NC(=O)CC2COC2)cc1Nc1nccc(-c2noc(COC)n2)c1OC [Example 76, 4-({3-methoxy-4-[5-(methoxymethyl)-1,2,4-oxadiazol-3-yl]pyridin-2-yl}amino)-N—(^2H3)methyl-6-[2-(oxetan-3-yl)acetamido]pyridazine-3-carboxamide]	180
[2H]C([2H])([2H])NC(=O)c1nnc(Nc2cc(C(F)(F)F)ccn2)cc1Nc1nccc(-c2ncn(C)n2)c1OC [Example 32, 4-{[3-methoxy-4-(1-methyl-1H-1,2,4-triazol-3-yl)pyridin-2-yl]amino}-N—(^2H3)methyl-6-{[4-(trifluoromethyl)pyridin-2-yl]amino}pyridazine-3-carboxamide]	90
[2H]C([2H])([2H])NC(=O)c1cnc(NC(=O)CC)cc1Nc1nccc(-c2noc(C)n2)c1OC [Example 43, 4-{[3-methoxy-4-(5-methyl-1,2,4-oxadiazol-3-yl)pyridin-2-yl]amino}-N—(^2H3)methy-6-propanamidopyridine-3-carboxamide]	120
